Tests used:
Type in all cases: functional
OVCAR-4 = assay: Cytotoxicity against human OVCAR4 cells assessed as cell growth at 10 uM after 48 hrs by SRB assay; conditions: OVCAR-4, 48 h, read-out: Activity
[1] = Cytotoxicity against human ovarian cancer cells after 48 hrs by SRB assay; conditions: Cancer cell lines
[2] = Cytotoxicity against human leukemia cells after 48 hrs by SRB assay; conditions: Leukemia cell; for CC50: read-out: LC50 (the source's name)
[3] = Cytotoxicity against human renal cancer cells after 48 hrs by SRB assay; conditions: Cancer cell lines
CCRF-CEM = assay: Cytotoxicity against human CCRF-CEM cells assessed as cell growth at 10 uM after 48 hrs by SRB assay; conditions: read-out: Activity
[4] = Cytotoxicity against human colon cancer cells after 48 hrs by SRB assay; conditions: Cancer cell lines
[5] = Cytotoxicity against human non-small cell lung cancer cells after 48 hrs by SRB assay; conditions: Cancer cell lines; for CC50: read-out: LC50 (the source's name)
[6] = Cytotoxicity against human melanoma cells after 48 hrs by SRB assay; conditions: Melanoma cell; for CC50: read-out: LC50 (the source's name)
[7] = Cytotoxicity against human CNS cancer cells after 48 hrs by SRB assay; conditions: Cancer cell lines
[8] = Cytotoxicity against human prostate cancer cells after 48 hrs by SRB assay; conditions: Cancer cell lines
[9] = Cytotoxicity against human breast cancer cells after 48 hrs by SRB assay; conditions: Cancer cell lines
SK-MEL-5 = assay: Cytotoxicity against human SK-MEL-5 cells assessed as cell growth at 10 uM after 48 hrs by SRB assay; conditions: SK-MEL-5, 48 h, read-out: Activity

| SMILES | GI50 [1] [µM] | LC50 (concentration causing 50% net cell kill) [1] [µM] | TGI [1] [µM] | GI50 [2] [µM] | TGI [2] [µM] | CC50 [2] [µM] | GI50 [3] [µM] | LC50 [3] [µM] | TGI [3] [µM] | GI50 [4] [µM] | LC50 (concentration lethal to 50% of cells) [4] [µM] | TGI [4] [µM] | GI50 [5] [µM] | TGI [5] [µM] | CC50 [5] [µM] | GI50 [6] [µM] | TGI [6] [µM] | CC50 [6] [µM] | GI50 [7] [µM] | LC50 (concentration giving 50% net cell kill) [7] [µM] | further results |
| --- | --- | --- | --- | --- | --- | --- | --- | --- | --- | --- | --- | --- | --- | --- | --- | --- | --- | --- | --- | --- | --- |
| COc1ccc(-c2cc(-c3ccc4ccccc4c3)nn2C2C(=O)Nc3ccccc32)cc1 (stereo unspecified) |  |  |  |  |  |  |  |  |  |  |  |  |  |  |  |  |  |  |  |  | growth at 10 µM (OVCAR-4): 91.5% |
| COc1ccc(-c2cc(-c3ccc(Cl)cc3)n(C3C(=O)Nc4ccc(Br)cc43)n2)cc1 (stereo unspecified) | 9.75 | 64.8 | 28.7 | 12.3 | 67 | 100 | 9.2 | 62.1 | 32.3 | 7.2 | 78.8 | 36.3 | 7.53 | 30 | 58.6 | 13.2 | 49.3 | 81.1 | 5.48 | 46.5 | growth at 10 µM (CCRF-CEM): 58.6%; TGI [7]: 16.7 µM; GI50 [8]: 7.65 µM; LC50 [8]: 61.2 µM; TGI [8]: 22.1 µM; GI50 [9]: 8.1 µM; LC50 (concentration causing 50% net cell kill) [9]: 65.8 µM; TGI [9]: 24.6 µM |
| CN(C)c1ccc(C2CC(c3ccccc3)=NN2C2=NC(=O)/C(=C3\C(=O)Nc4ccc(Cl)cc43)S2)cc1 (stereo unspecified) | 0.24 | 48.8 | 0.62 | 0.34 | 3.11 | 100 | 0.19 | 15.3 | 0.43 | 0.19 | 16.5 | 0.41 | 0.21 | 0.51 | 37.9 | 0.26 | 0.57 | 2.16 | 0.19 | 1.63 | growth at 10 µM (SK-MEL-5): -52.9%; TGI [7]: 0.43 µM; GI50 [8]: 0.25 µM; LC50 [8]: 12.8 µM; TGI [8]: 0.69 µM; GI50 [9]: 0.22 µM; LC50 (concentration causing 50% net cell kill) [9]: 2.32 µM; TGI [9]: 0.53 µM |
| COc1ccc(-c2cc(-c3ccc(Cl)cc3)n(C3C(=O)Nc4ccc(Cl)cc43)n2)cc1 (stereo unspecified) | 3.68 | 52.3 | 14.7 | 27.9 | 79.2 | 100 | 3.75 | 42.4 | 13.2 | 6.15 | 69.4 | 28.6 | 4.37 | 23.2 | 59.8 | 9.4 | 46.7 | 76.4 | 3.94 | 42.2 | growth at 10 µM (CCRF-CEM): 50.8%; TGI [7]: 14.4 µM; GI50 [8]: 6.49 µM; LC50 [8]: 62.4 µM; TGI [8]: 20.3 µM; GI50 [9]: 6.29 µM; LC50 (concentration causing 50% net cell kill) [9]: 47.6 µM; TGI [9]: 17.8 µM |
| COc1ccc(C2=NN(C3=NC(=O)/C(=C4\C(=O)Nc5ccc(Br)cc54)S3)C(c3ccc(Cl)cc3)C2)cc1 (stereo unspecified) | 0.19 | 29.8 | 14.7 | 0.19 | 14 | 100 | 0.14 | 4 | 0.37 | 0.13 | 16.1 | 7.44 | 0.12 | 0.34 | 12.4 | 0.16 | 0.34 | 0.99 | 0.12 | 15.7 | growth at 10 µM (SK-MEL-5): -56.4%; TGI [7]: 1.48 µM; GI50 [8]: 0.18 µM; LC50 [8]: 100 µM; TGI [8]: 1.01 µM; GI50 [9]: 0.14 µM; LC50 (concentration causing 50% net cell kill) [9]: 19.2 µM; TGI [9]: 0.4 µM |
| O=C1Nc2ccc(Br)cc2C1n1nc(-c2ccc3ccccc3c2)cc1-c1ccc(Cl)cc1 (stereo unspecified) | 3.09 | 33.2 | 9.85 | 10.4 | 15.2 | 79.2 | 2.5 | 27.2 | 7.66 | 4.33 | 51.1 | 15 | 3.31 | 10 | 34.5 | 6.53 | 22.4 | 56.8 | 3.18 | 33.3 | growth at 10 µM (OVCAR-4): 58.5%; TGI [7]: 10.5 µM; GI50 [8]: 2.57 µM; LC50 [8]: 34.4 µM; TGI [8]: 8.89 µM; GI50 [9]: 4.3 µM; LC50 (concentration causing 50% net cell kill) [9]: 62.1 µM; TGI [9]: 14.3 µM |
| O=C1N=C(N2N=C(c3ccccc3)CC2c2ccccc2O)S/C1=C1/C(=O)Nc2ccc(Br)cc21 (stereo unspecified) | 0.28 | 19 | 0.94 | 0.27 | 1.05 | 9.49 | 0.23 | 2.55 | 0.63 | 0.21 | 1.67 | 0.46 | 0.24 | 0.67 | 7.24 | 0.23 | 0.66 | 2.43 | 0.24 | 4.12 | growth at 10 µM (SK-MEL-5): -53.9%; TGI [7]: 0.72 µM; GI50 [8]: 0.29 µM; LC50 [8]: 7.68 µM; TGI [8]: 0.93 µM; GI50 [9]: 0.26 µM; LC50 (concentration causing 50% net cell kill) [9]: 3.59 µM; TGI [9]: 0.8 µM |
| O=C1N=C(N2N=C(c3ccccc3)CC2c2ccc(Cl)cc2)S/C1=C1/C(=O)Nc2ccccc21 (stereo unspecified) | 0.23 | 26.7 | 0.65 | 0.37 | 70.8 | 100 | 0.27 | 22.1 | 0.85 | 0.19 | 0.81 | 0.39 | 0.23 | 6.29 | 30 | 0.28 | 0.54 | 1 | 0.19 | 2.07 | growth at 10 µM (SK-MEL-5): -56.9%; TGI [7]: 0.5 µM; GI50 [8]: 0.25 µM; TGI [8]: 0.85 µM; GI50 [9]: 0.32 µM; LC50 (concentration causing 50% net cell kill) [9]: 39.4 µM; TGI [9]: 0.91 µM |
